± gives the expanded uncertainty stated by the source.
What was measured:
[1] = 298.2 K; 101.33 kPa; Liquid; Vibrating tube method
[2] = refractive index (Na D-line) (dimensionless); settings: 298.2 K; 101.33 kPa; Liquid; Standard Abbe refractometry

SMILES | mass density [1] [kg/m3] | refractive index [2]
CCCCCCCO [heptan-1-ol] | 818.915 ± 0.63 | 1.4224 ± 0.0004
O [water] | – | 1.3325 ± 0.0004
CCCCO [butan-1-ol] | 805.877 ± 0.63 | 1.3972 ± 0.0004
CCCCCCO [hexan-1-ol] | 815.167 ± 0.83 | 1.416 ± 0.0005
CCCCCO [pentan-1-ol] | 811.288 ± 0.63 | 1.4078 ± 0.0004
CCC(C)O (stereo not drawn) [butan-2-ol] | 802.362 ± 0.63 | 1.394 ± 0.0004
CC(O)C(=O)O (stereo not drawn) [2-hydroxypropanoic acid] | 1199.91 ± 87 | 1.4243 ± 0.003
